Measured values reported in ChEMBL document CHEMBL3885861, “Open TG-GATES”.

Organism: Rattus norvegicus
Test: Open TG-GATES - Regimen: Daily Repeat
Type: toxicity, organism-based, Sprague-Dawley
Parameters: regimen Daily Repeat, gender Male, age 6 weeks
Conditions: in vivo, po, 10 mg/kg, route gavage, dose level Low; for APTT / Bas / Eos / Fbg / Hb / Ht / Lym / MCH / MCHC / MCV / Mono / Neu / PT / Plat / RBC / Ret / WBC: tissue Blood; for KIDNEY_L / KIDNEY_R / KIDNEY_TOTAL: tissue Kidney; for LIVER: tissue Liver; for A/G / ALP / ALT / AST / BUN / CRE / Ca / Cl / DBIL / GLC / IP / K / LDH / Na / PL / RALB / TBIL / TC / TG / TP / gamma-GTP: tissue Plasma

CC1=C(/C=C/C(C)=C/C=C/C(C)=C/CO)C(C)(C)CCC1 [RETINOL]
TERMINAL_BW (72 h, time 3 day): 230.9 g
APTT (72 h, time 3 day): 22.3 s
Bas (72 h, time 3 day): 0%
Eos (72 h, time 3 day): 0.8%
Fbg (72 h, time 3 day): 311.2 mg/dL
Hb (72 h, time 3 day): 13.4 g/dL
Ht (72 h, time 3 day): 38.9%
Lym (72 h, time 3 day): 80.8%
MCH (72 h, time 3 day): 21 pg
MCHC (72 h, time 3 day): 34.4%
MCV (72 h, time 3 day): 61.2 fL
Mono (72 h, time 3 day): 2.6%
Neu (72 h, time 3 day): 15.4%
PT (72 h, time 3 day): 16.8 s
Plat (72 h, time 3 day): 123.7 x10_4/uL
RBC (72 h, time 3 day): 636 x10_4/ul
Ret (72 h, time 3 day): 6.2%
WBC (72 h, time 3 day): 97.2 x10_2/uL
KIDNEY_L (72 h, time 3 day): 1 g
KIDNEY_R (72 h, time 3 day): 1 g
KIDNEY_TOTAL (72 h, time 3 day): 2 g
LIVER (72 h, time 3 day): 10.7 g
A/G (72 h, time 3 day): 1.3
ALP (72 h, time 3 day): 2143.6 IU/L
ALT (72 h, time 3 day): 51.6 IU/L
AST (72 h, time 3 day): 82 IU/L
BUN (72 h, time 3 day): 17 mg/dL
CRE (72 h, time 3 day): 0.1 mg/dL
Ca (72 h, time 3 day): 11 mg/dL
Cl (72 h, time 3 day): 107.8 meq/L
DBIL (72 h, time 3 day): 0 mg/dL
GLC (72 h, time 3 day): 191.4 mg/dL
IP (72 h, time 3 day): 6.5 mg/dL
K (72 h, time 3 day): 4.3 meq/L
LDH (72 h, time 3 day): 262.6 IU/L
Na (72 h, time 3 day): 142.2 meq/L
PL (72 h, time 3 day): 153.6 mg/dL
RALB (72 h, time 3 day): 3.2 g/dL
TBIL (72 h, time 3 day): 0.016 mg/dL
TC (72 h, time 3 day): 78.2 mg/dL
TG (72 h, time 3 day): 112.6 mg/dL
TP (72 h, time 3 day): 5.6 g/dL
gamma-GTP (72 h, time 3 day): 1 IU/L
TERMINAL_BW ([…], time 7 day): 257.9 g
TERMINAL_BW ([…], time 14 day): 293.8 g
TERMINAL_BW ([…], time 28 day): 358.5 g
APTT ([…], time 7 day): 23.3 s
Bas ([…], time 7 day): 0%
Eos ([…], time 7 day): 0.8%
Fbg ([…], time 7 day): 298.4 mg/dL
Hb ([…], time 7 day): 13.6 g/dL
Ht ([…], time 7 day): 39.2%
Lym ([…], time 7 day): 79.4%
MCH ([…], time 7 day): 21.2 pg
MCHC ([…], time 7 day): 34.8%
MCV ([…], time 7 day): 60.9 fL
Mono ([…], time 7 day): 2.4%
Neu ([…], time 7 day): 16.8%
PT ([…], time 7 day): 15.9 s
Plat ([…], time 7 day): 111.8 x10_4/uL
RBC ([…], time 7 day): 644 x10_4/ul
Ret ([…], time 7 day): 5.1%
WBC ([…], time 7 day): 94.2 x10_2/uL
APTT ([…], time 14 day): 23.8 s
Bas ([…], time 14 day): 0%
Eos ([…], time 14 day): 0.8%
Fbg ([…], time 14 day): 295.4 mg/dL
Hb ([…], time 14 day): 14.4 g/dL
Ht ([…], time 14 day): 40.6%
Lym ([…], time 14 day): 83.6%
MCH ([…], time 14 day): 20.6 pg
MCHC ([…], time 14 day): 35.4%
MCV ([…], time 14 day): 58.2 fL
Mono ([…], time 14 day): 1.8%
Neu ([…], time 14 day): 13.2%
PT ([…], time 14 day): 16.2 s
Plat ([…], time 14 day): 107.1 x10_4/uL
RBC ([…], time 14 day): 698 x10_4/ul
Ret ([…], time 14 day): 3.9%
WBC ([…], time 14 day): 114.6 x10_2/uL
APTT ([…], time 28 day): 26.8 s
Bas ([…], time 28 day): 0%
Eos ([…], time 28 day): 1%
Fbg ([…], time 28 day): 330 mg/dL
Hb ([…], time 28 day): 14.9 g/dL
Ht ([…], time 28 day): 41.2%
Lym ([…], time 28 day): 82.8%
MCH ([…], time 28 day): 19.8 pg
MCHC ([…], time 28 day): 36.2%
MCV ([…], time 28 day): 54.6 fL
Mono ([…], time 28 day): 1.6%
Neu ([…], time 28 day): 14.6%
PT ([…], time 28 day): 15.8 s
Plat ([…], time 28 day): 102.3 x10_4/uL
RBC ([…], time 28 day): 756 x10_4/ul
Ret ([…], time 28 day): 2.4%
WBC ([…], time 28 day): 86 x10_2/uL
KIDNEY_L ([…], time 7 day): 1.1 g
KIDNEY_R ([…], time 7 day): 1.1 g
KIDNEY_TOTAL ([…], time 7 day): 2.2 g
KIDNEY_L ([…], time 14 day): 1.1 g
KIDNEY_R ([…], time 14 day): 1.2 g
KIDNEY_TOTAL ([…], time 14 day): 2.3 g
KIDNEY_L ([…], time 28 day): 1.3 g
KIDNEY_R ([…], time 28 day): 1.3 g
KIDNEY_TOTAL ([…], time 28 day): 2.6 g
LIVER ([…], time 7 day): 12.5 g
LIVER ([…], time 14 day): 12.9 g
LIVER ([…], time 28 day): 14.9 g
A/G ([…], time 7 day): 1.3
ALP ([…], time 7 day): 1621.4 IU/L
ALT ([…], time 7 day): 41.6 IU/L
AST ([…], time 7 day): 68.2 IU/L
BUN ([…], time 7 day): 17.2 mg/dL
CRE ([…], time 7 day): 0.2 mg/dL
Ca ([…], time 7 day): 10.7 mg/dL
Cl ([…], time 7 day): 107.2 meq/L
DBIL ([…], time 7 day): 0 mg/dL
GLC ([…], time 7 day): 193.2 mg/dL
IP ([…], time 7 day): 6.2 mg/dL
K ([…], time 7 day): 4.1 meq/L
LDH ([…], time 7 day): 216 IU/L
Na ([…], time 7 day): 142.4 meq/L
PL ([…], time 7 day): 157.4 mg/dL
RALB ([…], time 7 day): 3.2 g/dL
TBIL ([…], time 7 day): 0.006 mg/dL
TC ([…], time 7 day): 76.4 mg/dL
TG ([…], time 7 day): 160.4 mg/dL
TP ([…], time 7 day): 5.7 g/dL
gamma-GTP ([…], time 7 day): 1.4 IU/L
A/G ([…], time 14 day): 1.2
ALP ([…], time 14 day): 1426.6 IU/L
ALT ([…], time 14 day): 42.8 IU/L
AST ([…], time 14 day): 70.6 IU/L
BUN ([…], time 14 day): 17.6 mg/dL
CRE ([…], time 14 day): 0.2 mg/dL
Ca ([…], time 14 day): 10.6 mg/dL
Cl ([…], time 14 day): 108.4 meq/L
DBIL ([…], time 14 day): 0 mg/dL
GLC ([…], time 14 day): 195 mg/dL
IP ([…], time 14 day): 5.7 mg/dL
K ([…], time 14 day): 4 meq/L
LDH ([…], time 14 day): 181.2 IU/L
Na ([…], time 14 day): 143.2 meq/L
PL ([…], time 14 day): 150 mg/dL
RALB ([…], time 14 day): 3.1 g/dL
TBIL ([…], time 14 day): 0.004 mg/dL
TC ([…], time 14 day): 70.2 mg/dL
TG ([…], time 14 day): 156.8 mg/dL
TP ([…], time 14 day): 5.7 g/dL
gamma-GTP ([…], time 14 day): 0.8 IU/L
A/G ([…], time 28 day): 1.2
ALP ([…], time 28 day): 1127 IU/L
ALT ([…], time 28 day): 46.2 IU/L
AST ([…], time 28 day): 69.4 IU/L
BUN ([…], time 28 day): 15.2 mg/dL
CRE ([…], time 28 day): 0.2 mg/dL
Ca ([…], time 28 day): 10.4 mg/dL
Cl ([…], time 28 day): 108.4 meq/L
DBIL ([…], time 28 day): 0 mg/dL
GLC ([…], time 28 day): 182.8 mg/dL
IP ([…], time 28 day): 5.8 mg/dL
K ([…], time 28 day): 4.1 meq/L
LDH ([…], time 28 day): 167.2 IU/L
Na ([…], time 28 day): 142 meq/L
PL ([…], time 28 day): 140.2 mg/dL
RALB ([…], time 28 day): 3.2 g/dL
TBIL ([…], time 28 day): 0.016 mg/dL
TC ([…], time 28 day): 67.8 mg/dL
TG ([…], time 28 day): 168.2 mg/dL
TP ([…], time 28 day): 6 g/dL
gamma-GTP ([…], time 28 day): 1.4 IU/L
